The values below come from patent US20140200241A1, “PRODRUGS FOR TREATING MICROBIAL INFECTIONS” (Northeastern University, priority 2011, published 2014).

The test system of one data set is Salmonella typhimurium. Kind of data set: MIC against Salmonella typhimurium. Format: cell-based. The settings on record: Salmonella enterica.
The subject of a further data set is MRSA. Kind of data set: MRSA infection in C. elegans. In kind it is in vivo.
The test system of data set [1] is E. coli ΔnfsA/ΔnfnB. Kind of data set: microbe, parasite or virus in culture. As to conditions: Escherichia coli.
For data set [2], the system named is Acinetobacter baumannii. The data set can be described thus: microbe, parasite or virus in culture.
Data set [3] concerns HepG2. As to conditions: human.
For the next data set, the system named is E. coli ΔnfsA. The data set can be described thus: microbe, parasite or virus in culture. The settings on record: Escherichia coli.
Data set [4] has as its system Pseudomonas aeruginosa. The settings on record: human.
Another data set can be described thus: in vitro. The settings on record: human.
For data set [5], the system named is IMR90. The settings on record: human.
In data set [6] the test system is Fadu. The data set can be described thus: cells. As to conditions: Homo sapiens.
Data set [7] deals with Acinetobacter baumannii. The settings on record: human.
The subject of data set [8] is HepG2. Kind of data set: cells. The settings on record: Homo sapiens.
The next data set deals with E. coli ΔnfnB. Kind of data set: microbe, parasite or virus in culture. As to conditions: Escherichia coli.
The subject of data set [9] is Bacillus anthracis. Kind of data set: microbe, parasite or virus in culture.
In data set [10] the test system is Escherichia coli. As to conditions: human.
The subject of data set [11] is Staphylococcus aureus. As to conditions: for TI: human.
The test system of data set [12] is Enterococcus faecalis. Kind of data set: microbe, parasite or virus in culture.
The subject of data set [13] is Yersinia pestis. As to conditions: human fibroblast IC50 vs MIC, Y. pestis.
Data set [14] relates to Caco-2. Kind of data set: cells. The settings on record: Homo sapiens.
Data set [15] relates to Enterococcus faecalis. The settings on record: human.
Data set [16] deals with E. coli ΔnfsA/ΔnfnB. The settings on record: double mutant lacking both major nitroreductases vs wild type.
Data set [17] has as its system Fadu. As to conditions: human.
Data set [18] concerns Escherichia coli. Kind of data set: microbe, parasite or virus in culture.
The test system of data set [19] is Yersinia pestis. The data set can be described thus: microbe, parasite or virus in culture. The settings on record: for MIC: Y. pestis (FL2, PD30: KIM).
The subject of data set [20] is Staphylococcus aureus. Kind of data set: microbe, parasite or virus in culture. As to conditions: for MIC: S. aureus.
The test system of data set [21] is IMR90. Kind of data set: cells. As to conditions: Homo sapiens, IMR-90.
The test system of data set [22] is Caco-2. As to conditions: human.
The subject of data set [23] is Pseudomonas aeruginosa. The data set can be described thus: microbe, parasite or virus in culture.
The subject of a further data set is E. coli ΔybgJ. The data set can be described thus: microbe, parasite or virus in culture. As to conditions: Escherichia coli.
Data set [24] deals with Francisella tularensis. Kind of data set: microbe, parasite or virus in culture. The settings on record: for MIC: F. tularensis SchuS4.
For data set [25], the system named is Bacillus anthracis. The settings on record: human fibroblast IC50 vs MIC, B. anthracis.
The test system of another data set is E. coli ΔargC. Kind of data set: microbe, parasite or virus in culture. As to conditions: Escherichia coli.
For data set [26], the system named is Francisella tularensis. The settings on record: human fibroblast IC50 vs MIC, F. tularensis.
For the next data set, the system named is S. aureus. As to conditions: S. aureus mouse infection model; cited from earlier work.
The test system of data set [27] is E. coli long-chromosomal-deletion mutants. As to conditions: 50 μg/ml of prodrug.

The IC50 is the point on the concentration scale where inhibition reaches its midpoint. A higher IC50 goes with a need for much substance.

Structures are written as SMILES. Values after ≈ are worked out from the molar mass of the structure shown. Like-named read-outs stand apart in the source and are kept apart here.

In the case of `O=[N+]([O-])c1ccc(/C=[N+](\[O-])CCO)o1` [FL1], the MIC in the data set on Salmonella typhimurium is 5 µg/mL (≈ 25 µM); in the data set on E. coli ΔnfsA/ΔnfnB [1], 12.5 µg/mL (≈ 62.5 µM); in the data set on Acinetobacter baumannii [2], 12.5 µg/mL (≈ 62.5 µM); with E. coli ΔnfsA, 2.5 µg/mL (≈ 12.5 µM); in the data set on E. coli ΔnfnB it was 0.16 µg/mL (≈ 0.799 µM); in the data set on Bacillus anthracis [9], 0.35 µg/mL (≈ 1.75 µM). In addition, the MIC in the data set with Enterococcus faecalis [12] was 3.12 µg/mL (≈ 15.6 µM); against Escherichia coli [18], 0.78 µg/mL (≈ 3.9 µM); in the data set with Escherichia coli [18] (read-out: MIC Against E. coli), 0.78 µg/mL (≈ 3.9 µM); against Yersinia pestis [19] it was at most 0.78 µg/mL; against Staphylococcus aureus [20], 1.56 µg/mL (≈ 7.79 µM); against Pseudomonas aeruginosa [23] it was 25 µg/mL (≈ 125 µM). In addition, the in vivo efficacy result in the data set with MRSA was “in vivo efficacy against a MRSA infection in C. elegans”. The TI is 40 in the data set on HepG2 [3]; 10 with Pseudomonas aeruginosa [4]; 320 in the data set with IMR90 [5]; 20 in the data set on Acinetobacter baumannii [7]; 320 in the data set with Escherichia coli [10]; 160 in the data set with Staphylococcus aureus [11]. In addition, the TI result is “≧320” in the data set with Yersinia pestis [13], 80 in the data set with Enterococcus faecalis [15], 80 in the data set on Fadu [17] and 256 in the data set with Caco-2 [22]. The IC50 in “in vitro” was 250 µg/mL (≈ 1250 µM); in the data set on Fadu [6] it was 62.5 µg/mL (≈ 312 µM); in the data set on HepG2 [8] it was 31.2 µg/mL (≈ 156 µM); with Caco-2 [14], 200 µg/mL (≈ 999 µM); with IMR90 [21] it was 250 µg/mL (≈ 1250 µM). For the same molecule, the MBC in the data set with Bacillus anthracis [9] was 0.78 µg/mL (≈ 3.9 µM); in the data set with Escherichia coli [18] it was 0.78 µg/mL (≈ 3.9 µM); against Staphylococcus aureus [20], 3.25 µg/mL (≈ 16.2 µM). The same molecule returned a decrease of activity in the data set with E. coli ΔnfsA/ΔnfnB [16] of 16 fold. In the data set with Sheep's red blood cells, the Hemolytic activity entry is on record as “no hemolytic activity”.

Regarding `O=C(/C=C(\O)C(F)(F)F)c1ccc(Cl)cc1` [PD30], the MIC worked out at 12.5 µg/mL (≈ 49.9 µM) in the data set with Acinetobacter baumannii [2]; 0.78 µg/mL (≈ 3.11 µM) in the data set with Bacillus anthracis [9]; 3.12 µg/mL (≈ 12.4 µM) in the data set on Staphylococcus aureus [11] (S. aureus); 100 µg/mL (≈ 399 µM) against E. coli ΔybgJ; 0.195 µg/mL (≈ 0.778 µM) in the data set with Francisella tularensis [24]; 6.25 µg/mL (≈ 24.9 µM) in the data set with Enterococcus faecalis [12]. Further, the MIC was 6.25 µg/mL (≈ 24.9 µM) in the data set on Escherichia coli [18] (read-out: MIC Against E. coli); 0.78 µg/mL (≈ 3.11 µM) against Yersinia pestis [19]; 50 µg/mL (≈ 200 µM) with E. coli ΔargC; 3.12 µg/mL (≈ 12.5 µM) with Staphylococcus aureus [20]; over 50 µg/mL with Pseudomonas aeruginosa [23]. Besides, the TI in the data set on HepG2 [3] is listed as 10; in the data set on Pseudomonas aeruginosa [4], over 2; with IMR90 [5] it was 40; in the data set with Acinetobacter baumannii [7], 20; with Escherichia coli [10], 40; with Staphylococcus aureus [11], 80. Also, the TI is 320 in the data set with Bacillus anthracis [25]; 320 in the data set on Yersinia pestis [13]; 40 in the data set on Enterococcus faecalis [15]; 10 in the data set on Fadu [17]; 1,282 in the data set with Francisella tularensis [26]; 32 in the data set with Caco-2 [22]. The IC50 turned out to be 250 µg/mL (≈ 998 µM) in the data set “in vitro”; 62.5 µg/mL (≈ 249 µM) in the data set on Fadu [6]; 62.5 µg/mL (≈ 249 µM) in the data set on HepG2 [8]; 200 µg/mL (≈ 798 µM) in the data set on Caco-2 [14]; 250 µg/mL (≈ 998 µM) in the data set on IMR90 [21]. Further, the values for the MBC in the data set with Bacillus anthracis [9], in the data set with Francisella tularensis [24] and against Yersinia pestis [19] were over 50 µg/mL, 0.78 to 1.5 µg/mL (≈ 3.11 to 5.99 µM) and 3.12 to 6.25 µg/mL (≈ 12.4 to 24.9 µM), respectively. In addition, the Hemolytic activity result in the data set with Sheep's red blood cells is on record as “no hemolytic activity”.

Regarding `COc1ccccc1NC(=O)Nc1ccc2ccccc2c1` [INF271], the efficacy result in the data set with S. aureus was “shows efficacy in a S. aureus mouse infection model”.

As for `Oc1c(Br)cc(Br)c2cccnc12` [FL2], the MIC with Acinetobacter baumannii [2] was 6.25 µg/mL (≈ 20.6 µM); against Bacillus anthracis [9] it was 1.5 µg/mL (≈ 4.95 µM); with Francisella tularensis [24] it was 0.097 µg/mL (≈ 0.32 µM); with Enterococcus faecalis [12], 3.25 µg/mL (≈ 10.7 µM); with Escherichia coli [18] (read-out: MIC Against E. coli), 1.5 µg/mL (≈ 4.95 µM); in the data set with Yersinia pestis [19], 1.5 µg/mL (≈ 4.95 µM). In addition, the MIC in the data set on Staphylococcus aureus [20] is at most 1.5 µg/mL; against Pseudomonas aeruginosa [23], over 50 µg/mL. Besides, the TI in the data set with HepG2 [3] was 42; in the data set with Pseudomonas aeruginosa [4] it was over 2; in the data set with IMR90 [5] it was 67; with Acinetobacter baumannii [7], 16; in the data set on Escherichia coli [10], 67; in the data set with Bacillus anthracis [25] it was 67. For the same molecule, the figures for the TI with Yersinia pestis [13], in the data set on Fadu [17] and with Francisella tularensis [26] were 67, 21 and 1,031, respectively. In data set [27], the “Resistance (growth in presence of prodrug)” value is “observed in a large number of deletions”. Moreover, the concentration for half-maximal inhibition (IC50) in “in vitro” amounted to 100 µg/mL (≈ 330 µM); in the data set with Fadu [6], 31.2 µg/mL (≈ 103 µM); in the data set on HepG2 [8], 62.5 µg/mL (≈ 206 µM); with IMR90 [21], 100 µg/mL (≈ 330 µM). The MBC was over 50 µg/mL against Bacillus anthracis [9], 1.5 to 3.12 µg/mL (≈ 4.95 to 10.3 µM) against Francisella tularensis [24], 3 µg/mL (≈ 9.9 µM) in the data set on Escherichia coli [18] and 12.5 to 25 µg/mL (≈ 41.3 to 82.5 µM) with Yersinia pestis [19].
